This note sets out measurements from article PMC10584170, “Machine learning-based phenotypic imaging to characterise the targetable biology of Plasmodium falciparum male gametocytes for the development of transmission-blocking antimalarials” (PLOS Pathogens, 2023).

Assay [1] has as its system P. falciparum male gametocytes. As to the kind of experiment: P. falciparum Dual Gamete Formation Assay (PfDGFA), male readout (exflagellation). Type of assay: cell-based, Plasmodium falciparum NF54. The settings on record: for Average inhibition male (%): average of replicates; for % inhibition male (individual replicates) R1: replicate R1; for % inhibition male (individual replicates) R3: replicate R3; for % inhibition male (individual replicates) R4: replicate R4; for Activity: hit = >50% inhibition in male or female readout in at least 3 replicates, 0 = no class assigned. The method in brief: (§1)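 Day-14 NF54 gametocytes were incubated with compound for 24 h at 37°C under 1% O2/3% CO2/96% N2. Gametogenesis was triggered with ookinete medium (0.1 μM xanthurenic acid) plus Cy3-anti-Pfs25, and exflagellation was imaged by brightfield after cooling to 4°C then 28°C. Females were imaged by Pfs25 fluorescence 24 h later at 28°C.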

In assay [2] the test system is P. falciparum female gametocytes. Description: P. falciparum Dual Gamete Formation Assay (PfDGFA), female readout (Pfs25-positive female gametes). The format is cell-based, Plasmodium falciparum NF54. Particulars: for Average inhibition female (%): average of replicates; for % inhibition female (individual replicates) R1: replicate R1; for % inhibition female (individual replicates) R3: replicate R3; for % inhibition female (individual replicates) R4: replicate R4. The gist of the method:
as §1

Setting [3] is: 2µM, 24h preincubation with gametocytes prior to induction of gametogenesis.
Where [4] appears, read: 2µM, 24h preincubation, hits selected on >50% inhibition in the male readout across replicates.
Setting [5] is: PfDGFA at 2µM, 24h preincubation.
Where [6] appears, read: 2µM, 24h preincubation, hits selected on >50% inhibition in the female readout across replicates.
Setting [7] is: 2µM, 24h preincubation, number of replicates with >50% inhibition in the male readout.
Setting [8] is: 2µM, 24h preincubation, number of replicates with >50% inhibition in the female readout.
Where [9] appears, read: 2µM, 24h preincubation with gametocytes.
Setting [10] is: PfDGFA at 2µM, 24h preincubation with gametocytes prior to induction of gametogenesis.
[11] abbreviates: PfDGFA at 2µM, 24h preincubation with gametocytes.

With `COc1ccc(O)cc1Cc1cnc2nc(N)nc(N)c2c1C` [TCMDC-137498], in assay [1] (setting [3]), the “Average inhibition male (%)” value is reported as -10.8%, the “% inhibition male (individual replicates) R1” value was 7.6%, the “% inhibition male (individual replicates) R3” value is recorded as -15.7% and the “% inhibition male (individual replicates) R4” value is given as -40.5%. In assay [1] (setting [4]), this compound had a HitlevelM of 0. In assay [1] (setting [5]), this compound came in with an Activity of 0. Besides, in assay [2] (setting [3]), the “Average inhibition female (%)” value is listed as 6.7%, the “% inhibition female (individual replicates) R1” value came to 14.0%, the “% inhibition female (individual replicates) R3” value amounted to 17.6% and the “% inhibition female (individual replicates) R4” value is listed as 8.3%. The same compound had a HitlevelF in assay [2] (setting [6]) of 0.

Regarding `Clc1ccc(CNCCCCCCNCc2ccc(Cl)cc2)cc1.O=C(O)c1ccc2ccccc2c1O` [TCMDC-137500], in assay [1] (setting [3]), the “Average inhibition male (%)” value came out at 60.2%, the “% inhibition male (individual replicates) R1” value amounted to 69.1%, the “% inhibition male (individual replicates) R3” value is given as 26.6% and the “% inhibition male (individual replicates) R4” value is recorded as 76.2%. Also, in assay [1] (setting [7]), the HitlevelM amounted to 3. Further, in assay [2] (setting [3]), the “Average inhibition female (%)” value came to 9.2%, the “% inhibition female (individual replicates) R1” value turned out to be 13.6%, the “% inhibition female (individual replicates) R3” value is -5.3% and the “% inhibition female (individual replicates) R4” value worked out at 22.1%. For the same compound, the HitlevelF in assay [2] (setting [8]) was 0.

For the compound `CCCN1CCN(CCNc2c3ccccc3nc3ccccc23)CC1` [TCMDC-137549], in assay [1] (setting [9]), the “Average inhibition male (%)” value is recorded as 95.7%, the “% inhibition male (individual replicates) R1” value is 96.4%, the “% inhibition male (individual replicates) R3” value turned out to be 92.4% and the “% inhibition male (individual replicates) R4” value is given as 99.6%. Further, in assay [2] (setting [9]), the “Average inhibition female (%)” value is 13.4%, the “% inhibition female (individual replicates) R1” value turned out to be 14.9%, the “% inhibition female (individual replicates) R3” value stood at 20.2% and the “% inhibition female (individual replicates) R4” value is listed as 28.7%.

Regarding `Br.CCCCCCCNCCNc1cc(C)nc2ccccc12` [TCMDC-137556], in assay [1] (setting [3]), the “Average inhibition male (%)” value worked out at 11.5%, the “% inhibition male (individual replicates) R1” value is 12.4%, the “% inhibition male (individual replicates) R3” value stood at 4.0% and the “% inhibition male (individual replicates) R4” value worked out at 8.2%. In addition, the HitlevelM in assay [1] (setting [7]) is reported as 0. Besides, in assay [2] (setting [3]), the “Average inhibition female (%)” value is on record as 18.1%, the “% inhibition female (individual replicates) R1” value worked out at 25.7%, the “% inhibition female (individual replicates) R3” value was 0.5% and the “% inhibition female (individual replicates) R4” value is 18.7%. The compound further returned a HitlevelF in assay [2] (setting [8]) of 0.

With `COc1cccc2c(O)c(CNC3CCCCC3)ccc12.Cl` [TCMDC-137595], in assay [1] (setting [10]), the “% inhibition male (individual replicates) R1” value is on record as -3.5%, the “% inhibition male (individual replicates) R3” value came out at 3.4% and the “% inhibition male (individual replicates) R4” value is 4.2%. For the same compound, the “Average inhibition male (%)” value in assay [1] (setting [5]) is recorded as 3.3%. Further, in assay [2] (setting [10]), the “% inhibition female (individual replicates) R1” value is on record as -8.7%, the “% inhibition female (individual replicates) R3” value is given as -13.9% and the “% inhibition female (individual replicates) R4” value is -3.5%. For the same compound, in assay [2] (setting [5]), the “Average inhibition female (%)” value was -7.6%.

For `COc1ccc(CNCCCCCCNCc2ccc(OC)c3ccccc23)c2ccccc12.Cl` [TCMDC-137631], in assay [1] (setting [11]), the “Average inhibition male (%)” value is 83.3%, the “% inhibition male (individual replicates) R1” value was determined as 71.0%, the “% inhibition male (individual replicates) R3” value is recorded as 73.6% and the “% inhibition male (individual replicates) R4” value is 100.9%. In addition, the HitlevelM in assay [1] (number of replicates with >50% inhibition in the male readout, 2µM) worked out at 4. In addition, in assay [2] (setting [11]), the “Average inhibition female (%)” value turned out to be 47.3%, the “% inhibition female (individual replicates) R1” value stood at 36.3%, the “% inhibition female (individual replicates) R3” value was determined as 33.7% and the “% inhibition female (individual replicates) R4” value was found to be 34.7%. In assay [2] (number of replicates with >50% inhibition in the female readout, 2µM), this compound displayed a HitlevelF of 1.

For `Cc1nc2nc(N)nc(N)c2c(C)c1Cc1cccc(C#N)c1.Cl` [TCMDC-137646], in assay [1] (setting [10]), the “% inhibition male (individual replicates) R1” value is 10.9%, the “% inhibition male (individual replicates) R3” value came to 34.4% and the “% inhibition male (individual replicates) R4” value was 21.2%. The “Average inhibition male (%)” value in assay [1] (setting [5]) is given as 19.8%. Further, in assay [2] (setting [10]), the “% inhibition female (individual replicates) R1” value was -3.5%, the “% inhibition female (individual replicates) R3” value is listed as -14.6% and the “% inhibition female (individual replicates) R4” value was 5.5%. Further, the “Average inhibition female (%)” value in assay [2] (setting [5]) is -8.2%.

Consider `Cc1ccc(Cc2c(C)nc3nc(N)nc(N)c3c2C)cc1.Cl` [TCMDC-137657], for which, in assay [1] (setting [10]), the “% inhibition male (individual replicates) R1” value amounted to 13.2%, the “% inhibition male (individual replicates) R3” value is given as 20.3% and the “% inhibition male (individual replicates) R4” value worked out at 13.4%. For the same compound, the “Average inhibition male (%)” value in assay [1] (setting [5]) is 14.9%. Besides, in assay [2] (setting [10]), the “% inhibition female (individual replicates) R1” value is on record as -6.6%, the “% inhibition female (individual replicates) R3” value is 8.8% and the “% inhibition female (individual replicates) R4” value is on record as -7.7%. Besides, the “Average inhibition female (%)” value in assay [2] (setting [5]) is -3.5%.

Regarding `Cc1nc2nc(N)nc(N)c2c(C)c1Cc1ccccc1Cl.Cl` [TCMDC-137668], in assay [1] (setting [3]), the “Average inhibition male (%)” value amounted to 0.635%, the “% inhibition male (individual replicates) R1” value amounted to 24.9%, the “% inhibition male (individual replicates) R3” value is on record as -5.5% and the “% inhibition male (individual replicates) R4” value is on record as -27.1%. In addition, the HitlevelM in assay [1] (setting [4]) was 0. In assay [1] (setting [5]), the Activity is recorded as 0. Also, in assay [2] (setting [3]), the “Average inhibition female (%)” value is on record as 9.8%, the “% inhibition female (individual replicates) R1” value is 18.7%, the “% inhibition female (individual replicates) R3” value was -14.7% and the “% inhibition female (individual replicates) R4” value was determined as 32.6%. In addition, in assay [2] (setting [6]), the HitlevelF was 0.

On to `CC(C)N(Cc1cnc2nc(N)nc(N)c2n1)c1ccc(Cl)c(Cl)c1` [TCMDC-137675], for which, in assay [1] (setting [10]), the “% inhibition male (individual replicates) R1” value came out at 8.1%, the “% inhibition male (individual replicates) R3” value is reported as 1.6% and the “% inhibition male (individual replicates) R4” value is given as -34.5%. The “Average inhibition male (%)” value in assay [1] (setting [5]) is -1.6%. In assay [2] (setting [10]), the “% inhibition female (individual replicates) R1” value stood at 8.3%, the “% inhibition female (individual replicates) R3” value is recorded as -2.9% and the “% inhibition female (individual replicates) R4” value is 6.8%. For the same compound, the “Average inhibition female (%)” value in assay [2] (setting [5]) is recorded as 1.4%.

`COc1ccc(N(C)Cc2cnc3nc(N)nc(N)c3n2)cc1` [TCMDC-137682]: in assay [1] (setting [10]), the “% inhibition male (individual replicates) R1” value came to 16.6% and the “% inhibition male (individual replicates) R4” value is -18.5%. For the same compound, the “Average inhibition male (%)” value in assay [1] (setting [5]) is given as 5.0%. Also, in assay [2] (setting [10]), the “% inhibition female (individual replicates) R1” value is listed as 1.5%, the “% inhibition female (individual replicates) R3” value was determined as 1.9% and the “% inhibition female (individual replicates) R4” value amounted to 1.8%. The “Average inhibition female (%)” value in assay [2] (setting [5]) amounted to 3.6%.

Consider `CCCc1cc(Cc2cnc(N)nc2N)cc(CCC)c1O.Cl` [TCMDC-137695], for which, in assay [1] (setting [10]), the “% inhibition male (individual replicates) R1” value was 13.3%, the “% inhibition male (individual replicates) R3” value is listed as -2.6% and the “% inhibition male (individual replicates) R4” value is listed as -24.5%. In assay [1] (setting [5]), the “Average inhibition male (%)” value is recorded as -1.8%. For the same compound, in assay [2] (setting [10]), the “% inhibition female (individual replicates) R1” value was -0.04%, the “% inhibition female (individual replicates) R3” value is -0.32% and the “% inhibition female (individual replicates) R4” value is listed as -11.2%. The “Average inhibition female (%)” value in assay [2] (setting [5]) is recorded as -4.4%.

With `Cc1cc(N2C(N)=NC(N)=NC2(C)C)ccc1Cl.Cl` [TCMDC-137705], in assay [1] (setting [3]), the “Average inhibition male (%)” value was -12.7%, the “% inhibition male (individual replicates) R1” value is 23.4%, the “% inhibition male (individual replicates) R3” value is -17.5% and the “% inhibition male (individual replicates) R4” value is -53.8%. In assay [1] (setting [4]), this compound showed a HitlevelM of 0. The same compound yielded an Activity in assay [1] (setting [5]) of 0. Besides, in assay [2] (setting [3]), the “Average inhibition female (%)” value was 4.4%, the “% inhibition female (individual replicates) R1” value turned out to be 16.7%, the “% inhibition female (individual replicates) R3” value is -1.9% and the “% inhibition female (individual replicates) R4” value is given as -1.7%. This compound also came in with a HitlevelF in assay [2] (setting [6]) of 0.

With `Cc1ccc(N2C(N)=NC(N)=NC2(C)C)cc1Cl.Cl` [TCMDC-137708], in assay [1] (setting [3]), the “Average inhibition male (%)” value is -13.6%, the “% inhibition male (individual replicates) R1” value stood at 11.4%, the “% inhibition male (individual replicates) R3” value was -5.0% and the “% inhibition male (individual replicates) R4” value is reported as -55.8%. For the same compound, the HitlevelM in assay [1] (setting [4]) was determined as 0. The compound also registered an Activity in assay [1] (setting [5]) of 0. In addition, in assay [2] (setting [3]), the “Average inhibition female (%)” value is reported as 15.0%, the “% inhibition female (individual replicates) R1” value amounted to 12.7%, the “% inhibition female (individual replicates) R3” value is recorded as 7.1% and the “% inhibition female (individual replicates) R4” value was 19.9%. Moreover, the HitlevelF in assay [2] (setting [6]) is 0.
